Measurements reported in patent US7910600B2, “Therapeutic kinase modulators” (Cylene Pharmaceuticals, Inc., priority 2007, dated 2011).

What follows are compounds tested against T1, recombinant human CK2 (Homo sapiens, UniProt P68400) (assay: Cell-free CK2 assay). Settings: read-out: CK2: % inh 500 nM.
T1 construct: purchased Upstate
Assay type: biochemical
Procedure: Modulatory activity of compounds described herein is assessed in vitro in cell-free CK2 assays. These assays are described hereafter.
Test compounds in aqueous solution are added at a volume of 10 microliters, to a reaction mixture comprising 10 microliters Assay Dilution Buffer (ADB; 20mM MOPS, pH 7.2, 25 mM beta-glycerolphosphate, 5 mM EGTA, 1 mM sodium orthovanadate and 1 mM dithiothreitol), 10 microliters of substrate peptide (RRRDDDSDDD (SEQ ID NO:4), dissolved in ADB at a concentration of 1 mM), 10 microliters of recombinant human CK2 (25 ng dissolved in ADB; Upstate). Reactions are initiated by the addition of 10 microliters of ATP Solution (90% 75 mM MgC12, 75 micromolar ATP dissolved in ADB; 10% [γ-^33P]ATP (stock 1 mCi/100 μl; 3000 Ci/mmol (Perkin Elmer) and maintained for 10 minutes at 30 degrees C. The reactions are quenched with 100 microliters of 0.75% phosphoric acid, then transferred to and filtered through a phosphocellulose filter plate (Millipore). After washing each well 5 times with 0.75% phosphoric acid, the plate is dried under vacuum for 5 min and, following the addition of 15 ul of scintillation fluid to each well, the residual radioactivity is measured using a Wallac […].

T1 sequence (P68400 whole entry): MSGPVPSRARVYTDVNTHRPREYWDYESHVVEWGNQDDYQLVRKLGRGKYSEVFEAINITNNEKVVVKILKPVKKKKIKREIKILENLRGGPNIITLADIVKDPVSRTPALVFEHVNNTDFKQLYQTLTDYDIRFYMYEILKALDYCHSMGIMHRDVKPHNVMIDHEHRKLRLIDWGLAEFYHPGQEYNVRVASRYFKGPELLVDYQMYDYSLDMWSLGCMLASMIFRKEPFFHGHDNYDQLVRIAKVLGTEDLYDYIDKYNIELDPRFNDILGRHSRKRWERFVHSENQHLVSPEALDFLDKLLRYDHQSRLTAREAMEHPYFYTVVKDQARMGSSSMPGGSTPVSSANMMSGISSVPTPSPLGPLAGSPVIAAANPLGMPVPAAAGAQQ
T1 sequence (P67870 whole entry partner): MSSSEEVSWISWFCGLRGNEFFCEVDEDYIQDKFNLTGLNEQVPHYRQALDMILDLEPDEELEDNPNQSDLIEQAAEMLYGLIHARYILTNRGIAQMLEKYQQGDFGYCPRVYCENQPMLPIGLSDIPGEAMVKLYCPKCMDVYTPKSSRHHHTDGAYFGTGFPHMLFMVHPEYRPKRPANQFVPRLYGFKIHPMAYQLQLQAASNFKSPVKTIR

inhibition at 0.5 µM [%]	SMILES
27	NC(=O)c1ccc2c(c1)nc(-c1ccccc1)c1ccncc12
-37	Fc1ccc2c(c1)nc(-c1ccncc1)c1ccncc12
4	COC(=O)c1ccc2c(c1)nc(-c1cscc1C)c1ccncc12
-17	Clc1cccc(-c2nc3ccccc3c3cnccc23)c1
-21	CCCNC(=O)c1ccc2c(c1)nc(-c1cnn(C)c1)c1ccncc12
87	Cc1cscc1-c1nc2cc(C(=O)O)ccc2c2cnccc12
-26	CCCNC(=O)c1ccc2c(c1)nc(-c1ccccc1)c1ccncc12
-28	Nc1cccc(-c2nc3cc(C(=O)NN4CCOCC4)ccc3c3cnccc23)c1
57	CN1CCN(C(=O)c2ccc3c(c2)nc(-c2ccccc2)c2ccncc23)CC1
-34	COC(=O)c1ccc2c(c1)nc(-c1ccccc1)c1ccncc12 [Methyl 5-phenylbenzo[c][2,6]naphthyridine-8-carboxylate]
6	CC(=O)Nc1cccc(-c2nc3cc(C(=O)N4CCN(C)CC4)ccc3c3cnccc23)c1
-24	Cc1cnc(CNC(=O)c2ccc3c(c2)nc(-c2cccc(N)c2)c2ccncc23)cn1
-6	CC(=O)Nc1cccc(-c2nc3cc(C(=O)NCc4cnc(C)cn4)ccc3c3cnccc23)c1
40	CC(=O)Nc1cccc(-c2nc3cc(C(=O)NCC4CCCCN4C)ccc3c3cnccc23)c1 (stereo not shown)
-21	CN1CCCN(C(=O)c2ccc3c(c2)nc(-c2cccc(N)c2)c2ccncc23)CC1
52	Cc1noc(C)c1-c1nc2cc(C(=O)O)ccc2c2cnccc12
-49	COC(=O)c1ccc2c(c1)nc(-c1cnn(C)c1)c1ccncc12 [Methyl 5-(1-methyl-1H-pyrazol-4-yl)benzo[c][2,6]naphthyridine-8-carboxylate]
-9	O=C(NC1CC1)c1ccc2c(c1)nc(-c1ccccc1)c1ccncc12
7	Cn1cc(-c2nc3cc(C(N)=O)ccc3c3cnccc23)cn1
-51	Fc1ccc2c(c1)nc(-c1ccccc1)c1ccncc12
99	O=C(O)c1ccc2c(c1)nc(-c1ccc(Cl)s1)c1ccncc12
-5	COC(=O)c1ccc2c(c1)nc(-c1c(C)noc1C)c1ccncc12
68	COc1cccc(F)c1-c1nc2cc(C(=O)O)ccc2c2cnccc12

Each compound was assayed on K562 (assay: Cell proliferation assay (Alamar Blue), K562). Settings: Homo sapiens; K562 cell line.
Assay type: cell-based
Procedure: (§1) A representative cell-proliferation assay protocol using Alamar Blue dye (stored at 4° C., use 20 ul per well) is described hereafter.
(§2) 96-Well Plate Setup and Compound Treatment
(§3) • a. Split and trypsinize cells. • b. Count cells using hemocytometer. • c. Plate 4,000-5,000 cells per well in 100 μl of medium and seed into a 96-well plate according to the following plate layout. Add cell culture medium only to wells B10 to B12. Wells B1 to B9 have cells but no compound added.
(§4) • d. Add 100 μl of 2× drug dilution to each well in a concentration shown in the plate layout above. At the same time, add 100 μl of media into the control wells (wells B10 to B12). Total volume is 200 μl/well. • e. Incubate four (4) days at 37° C., 5% CO2 in a humidified incubator. • f. Add 20 μl Alamar Blue reagent to each well. • g. Incubate for four (4) hours at 37° C., 5% CO2 in a humidified incubator. • h. Record fluorescence at an excitation wavelength of 544 nm and emission wavelength of 590 nm using a microplate reader.
(§5) In the assays, cells are cultured with a test compound for approximately four days, the dye is then added to the cells and fluorescence of […] dye is detected after approximately four hours. Different types of cells can be utilized in the assays (e.g., HCT-116 human colorectal carcinoma cells, PC-3 human prostatic cancer cells and MiaPaca human pancreatic carcinoma cells).

IC50 [µM]	SMILES
> 10	NC(=O)c1ccc2c(c1)nc(-c1ccccc1)c1ccncc12
> 10	Clc1cccc(-c2nc3ccccc3c3cnccc23)c1
> 10	CCCNC(=O)c1ccc2c(c1)nc(-c1cnn(C)c1)c1ccncc12
> 10	CCCNC(=O)c1ccc2c(c1)nc(-c1ccccc1)c1ccncc12
> 10	CN1CCN(C(=O)c2ccc3c(c2)nc(-c2ccccc2)c2ccncc23)CC1
> 10	COC(=O)c1ccc2c(c1)nc(-c1ccccc1)c1ccncc12 [Methyl 5-phenylbenzo[c][2,6]naphthyridine-8-carboxylate]
> 10	COC(=O)c1ccc2c(c1)nc(-c1cnn(C)c1)c1ccncc12 [Methyl 5-(1-methyl-1H-pyrazol-4-yl)benzo[c][2,6]naphthyridine-8-carboxylate]
> 10	O=C(NC1CC1)c1ccc2c(c1)nc(-c1ccccc1)c1ccncc12
> 10	Cn1cc(-c2nc3cc(C(N)=O)ccc3c3cnccc23)cn1
> 10	COc1cccc(F)c1-c1nc2cc(C(=O)O)ccc2c2cnccc12

The compounds below were run on MiaPaca human pancreatic carcinoma cells (assay: Cell proliferation assay (Alamar Blue), MiaPaCa). Settings: MIA PaCa-2, MiaPaCa cell line.
Assay type: cell-based
Procedure: as §1, §2, §3, §4, §5

IC50 [µM]	SMILES
> 10	Clc1cccc(-c2nc3ccccc3c3cnccc23)c1
> 10	COc1cccc(F)c1-c1nc2cc(C(=O)O)ccc2c2cnccc12

The compounds below were run on HCT-116 human colorectal carcinoma cells (assay: Cell proliferation assay (Alamar Blue), HCT-116). Settings: HCT-116 cell line.
Assay type: cell-based
Procedure: as §1, §2, §3, §4, §5

IC50 [µM]	SMILES
> 10	NC(=O)c1ccc2c(c1)nc(-c1ccccc1)c1ccncc12
> 10	Clc1cccc(-c2nc3ccccc3c3cnccc23)c1
> 10	CCCNC(=O)c1ccc2c(c1)nc(-c1cnn(C)c1)c1ccncc12
> 10	CCCNC(=O)c1ccc2c(c1)nc(-c1ccccc1)c1ccncc12
> 10	Nc1cccc(-c2nc3cc(C(=O)NN4CCOCC4)ccc3c3cnccc23)c1
> 10	CN1CCN(C(=O)c2ccc3c(c2)nc(-c2ccccc2)c2ccncc23)CC1
2.9	COC(=O)c1ccc2c(c1)nc(-c1ccccc1)c1ccncc12 [Methyl 5-phenylbenzo[c][2,6]naphthyridine-8-carboxylate]
> 10	CC(=O)Nc1cccc(-c2nc3cc(C(=O)N4CCN(C)CC4)ccc3c3cnccc23)c1
> 10	Cc1cnc(CNC(=O)c2ccc3c(c2)nc(-c2cccc(N)c2)c2ccncc23)cn1
> 10	CC(=O)Nc1cccc(-c2nc3cc(C(=O)NCc4cnc(C)cn4)ccc3c3cnccc23)c1
> 10	CC(=O)Nc1cccc(-c2nc3cc(C(=O)NCC4CCCCN4C)ccc3c3cnccc23)c1 (stereo not shown)
> 10	CN1CCCN(C(=O)c2ccc3c(c2)nc(-c2cccc(N)c2)c2ccncc23)CC1
2.5	COC(=O)c1ccc2c(c1)nc(-c1cnn(C)c1)c1ccncc12 [Methyl 5-(1-methyl-1H-pyrazol-4-yl)benzo[c][2,6]naphthyridine-8-carboxylate]
> 10	O=C(NC1CC1)c1ccc2c(c1)nc(-c1ccccc1)c1ccncc12
> 10	Cn1cc(-c2nc3cc(C(N)=O)ccc3c3cnccc23)cn1
> 10	COc1cccc(F)c1-c1nc2cc(C(=O)O)ccc2c2cnccc12

Each compound was assayed on PC-3 human prostatic cancer cells (assay: Cell proliferation assay (Alamar Blue), PC3). Settings: PC3 cell line.
Assay type: cell-based
Procedure: as §1, §2, §3, §4, §5

IC50 [µM]	SMILES
> 10	Clc1cccc(-c2nc3ccccc3c3cnccc23)c1
> 10	COc1cccc(F)c1-c1nc2cc(C(=O)O)ccc2c2cnccc12

These compounds were tested on MV-4-11 (assay: Cell proliferation assay (Alamar Blue), MV-4-11). Settings: Homo sapiens, MV4-11; MV-4-11 cell line.
Assay type: cell-based
Procedure: as §1, §2, §3, §4, §5

IC50 [µM]	SMILES
1.4	NC(=O)c1ccc2c(c1)nc(-c1ccccc1)c1ccncc12
> 10	CCCNC(=O)c1ccc2c(c1)nc(-c1cnn(C)c1)c1ccncc12
> 10	CCCNC(=O)c1ccc2c(c1)nc(-c1ccccc1)c1ccncc12
> 10	CN1CCN(C(=O)c2ccc3c(c2)nc(-c2ccccc2)c2ccncc23)CC1
> 10	COC(=O)c1ccc2c(c1)nc(-c1ccccc1)c1ccncc12 [Methyl 5-phenylbenzo[c][2,6]naphthyridine-8-carboxylate]
> 10	COC(=O)c1ccc2c(c1)nc(-c1cnn(C)c1)c1ccncc12 [Methyl 5-(1-methyl-1H-pyrazol-4-yl)benzo[c][2,6]naphthyridine-8-carboxylate]
> 10	O=C(NC1CC1)c1ccc2c(c1)nc(-c1ccccc1)c1ccncc12
2.9	Cn1cc(-c2nc3cc(C(N)=O)ccc3c3cnccc23)cn1
